Laboratory results as given in patent publication US9440941B2, “Substituted chroman-6-yloxy-cycloalkanes and their use as pharmaceuticals” (SANOFI, priority 2013, dated 2016).
Structures can show the parent of a compound that is named as a salt. Where two headings read alike, the source gives them in different places.

Biological target: T1, human NCX1 (Homo sapiens, UniProt P32418)
T1 construct: expressed in transfected cells
Assay: Inhibition of Ca2+ influx into cells (NCX1 reverse mode), FLIPR Fluo-4 assay
Type: cell-based
Conditions: for IC50: inhibition of NCX1 in reverse mode (Ca2+ influx into cells), read-out: NCX1rv IC50; for inhibition at 10 µM: NCX1 reverse mode, IC50 value not determined
In short: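 Ca2+ influx via reverse-mode exchange was evoked with gramicidin (20 µM final) after 45 min compound exposure at 16 °C in stably transfected CHO cells. Fluo-4 signal (520 nm) was followed on FLIPR at 2 s intervals. Max–min fluorescence gave percentage inhibition, from which IC50 was calculated.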

[1] = read-out: NCX1rv inhibition in % at 10 μM
[2] = read-out: Inhibition in % at 10 μM (NCX1rv)

SMILES | IC50 | further results
CC(C)N1CCC(CNC2CCC(Oc3ccc4c(c3)CCC(c3ccccc3)O4)CC2)CC1 (stereo not drawn) [compound 118] | 2.1 µM | 
CC(C)SCCNC1CCC(Oc2ccc3c(c2)CCC(c2ccccc2)O3)CC1 (stereo not drawn) [compound 119] | 1.1 µM | 
c1ccc(C2CCc3cc(OC4CCC(NCCC5CCOCC5)CC4)ccc3O2)cc1 (stereo not drawn) [compound 120] | 0.8 µM | 
COCCCNC1CCC(Oc2ccc3c(c2)CCC(c2ccccc2)O3)CC1 (stereo not drawn) [compound 121] | 0.7 µM | 
CC(C)(C)OCCCNC1CCC(Oc2ccc3c(c2)CCC(c2ccccc2)O3)CC1 (stereo not drawn) [compound 122] | 1.2 µM | 
c1ccc(C2CCc3cc(OC4CCC(NC5CC5)CC4)ccc3O2)cc1 (stereo not drawn) [compound 123] | 1 µM | 
CCCC1(NC2CCC(Oc3ccc4c(c3)CCC(c3ccccc3)O4)CC2)CC1 (stereo not drawn) [compound 124] | 2.4 µM | 
c1ccc(C2CCc3cc(OC4CCC(NC5CCOCC5)CC4)ccc3O2)cc1 (stereo not drawn) [compound 125] | 1.9 µM | 
c1ccc(C2CCc3cc(OC4CCC(NCCCOC5CCCC5)CC4)ccc3O2)cc1 (stereo not drawn) [compound 126] | 1.6 µM | 
CC(C)(C)CCNC1CCC(Oc2ccc3c(c2)CCC(c2ccccc2)O3)CC1 (stereo not drawn) [compound 127] | 1.1 µM | 
CC(CN(C)C)NC1CCC(Oc2ccc3c(c2)CCC(c2ccccc2)O3)CC1 (stereo not drawn) [compound 128] | 1.7 µM | 
c1ccc(C2CCc3cc(OC4CCC(NCC5CCCO5)CC4)ccc3O2)cc1 (stereo not drawn) [compound 129] | 0.7 µM | 
CC(C)OCCCNC1CCC(Oc2ccc3c(c2)CCC(c2ccccc2)O3)CC1 (stereo not drawn) [compound 134] | 1.1 µM | 
O=C(C1CCC(Oc2ccc3c(c2)CCC(c2ccccc2)O3)CC1)N(CCO)CCO (stereo not drawn) [compound 157, N,N-Bis(2-hydroxyethyl)-4-(2-phenylchroman-6-yloxy)-cyclohexanecarboxamide] | 2 µM | 
NCC(=O)N[C@H]1CC[C@H](Oc2ccc3c(c2)CC[C@H](c2ccccc2)O3)CC1 [compound 160, hydrochloride] | 1.1 µM | 
CC(C)(C)CNC1CCC(Oc2ccc3c(c2)CCC(c2ccccc2)O3)CC1 (stereo not drawn) [compound 161, N-(2,2-Dimethylpropyl)-4-(2-phenylchroman-6-yloxy)-cyclohexylamine] | 1.3 µM | 
CC(C)(C)CNC1CCC(Oc2ccc3c(c2)CCC(c2ccccc2)O3)CC1 (stereo not drawn) [compound 162, N-(2,2-Dimethylpropyl)-4-(2-phenylchroman-6-yloxy)-cyclohexylamine] | 2.3 µM | 
CC1(O)CCC(Oc2ccc3c(c2)CCC(c2ccccc2)O3)CC1 (stereo not drawn) [compound 163, 1-Methyl-4-(2-phenylchroman-6-yloxy)-cyclohexanol] | 0.6 µM | 
Cc1cccc(C)c1C1CCc2cc(OC3CCC(NCc4c(C)nn(C)c4C)CC3)ccc2O1 (stereo not drawn) [compound 164] | 9.4 µM | 
CSC(C)CCNC1CCC(Oc2ccc3c(c2)CCC(c2c(C)cccc2C)O3)CC1 (stereo not drawn) [compound 165] | 10 µM | 
Cc1cccc(C)c1C1CCc2cc(OC3CCC(C(=O)NCCO)CC3)ccc2O1 (stereo not drawn) [compound 166] | 6.2 µM | 
Cc1cccc(C)c1C1CCc2cc(OC3CCC(C(=O)NCc4ccno4)CC3)ccc2O1 (stereo not drawn) [compound 167] | 7.7 µM | 
Cc1nn(C)c(C)c1CNC1CCC(Oc2ccc3c(c2)CCC(c2ccccc2F)O3)CC1 (stereo not drawn) [compound 169] | 2.5 µM | 
CSC(C)CCNC1CCC(Oc2ccc3c(c2)CCC(c2ccccc2F)O3)CC1 (stereo not drawn) [compound 170] | 4.6 µM | 
O=C(NCCO)C1CCC(Oc2ccc3c(c2)CCC(c2ccccc2F)O3)CC1 (stereo not drawn) [compound 173] | 0.7 µM | 
O=C(NCc1ccno1)C1CCC(Oc2ccc3c(c2)CCC(c2ccccc2F)O3)CC1 (stereo not drawn) [compound 174] | 0.6 µM | 

SMILES | IC50 | further results
CSC(C)CCNC1CCC(Oc2ccc3c(c2)CCC(c2ccccc2C)O3)CC1 (stereo not drawn) [compound 175] | 3.5 µM | 
N[C@@H](CO)C(=O)N[C@H]1CC[C@H](Oc2ccc3c(c2)CCC(c2ccccc2)O3)CC1 (stereo partly drawn) [compound 181, hydrochloride] | 0.3 µM | 
CCn1nccc1CNC(=O)C1CCC(Oc2ccc3c(c2)CCC(c2ccccc2F)O3)CC1 (stereo not drawn) [compound 183] | 10 µM | 
O=C(NCc1ccnc(Cl)c1)C1CCC(Oc2ccc3c(c2)CCC(c2ccccc2F)O3)CC1 (stereo not drawn) [compound 184] | 1.3 µM | 
Cc1ccccc1C1CCc2cc(OC3CCC(NCC4CCCO4)CC3)ccc2O1 (stereo not drawn) [compound 187] |  | inhibition at 10 µM [1]: 99%
COCC(C)NC1CCC(Oc2ccc3c(c2)CCC(c2ccccc2C)O3)CC1 (stereo not drawn) [compound 188] |  | inhibition at 10 µM [1]: 96%
COCCNC1CCC(Oc2ccc3c(c2)CCC(c2ccccc2C)O3)CC1 (stereo not drawn) [compound 189] |  | inhibition at 10 µM [1]: 100%
Cc1ccccc1C1CCc2cc(OC3CCC(NCCCOC(C)C)CC3)ccc2O1 (stereo not drawn) [compound 190] |  | inhibition at 10 µM [1]: 93%
CCSCCNC1CCC(Oc2ccc3c(c2)CCC(c2ccccc2C)O3)CC1 (stereo not drawn) [compound 191] |  | inhibition at 10 µM [1]: 95%
CSCCNC1CCC(Oc2ccc3c(c2)CCC(c2ccccc2C)O3)CC1 (stereo not drawn) [compound 192] |  | inhibition at 10 µM [1]: 98%
COCCCNC1CCC(Oc2ccc3c(c2)CCC(c2ccccc2C)O3)CC1 (stereo not drawn) [compound 193] |  | inhibition at 10 µM [1]: 99%
Cc1ccccc1C1CCc2cc(OC3CCC(NCCSC(C)C)CC3)ccc2O1 (stereo not drawn) [compound 194] |  | inhibition at 10 µM [2]: 85%
CCC(COC)NC1CCC(Oc2ccc3c(c2)CCC(c2ccccc2C)O3)CC1 (stereo not drawn) [compound 195] |  | inhibition at 10 µM [2]: 96%
Cc1ccccc1C1CCc2cc(OC3CCC(NCCC4CCOCC4)CC3)ccc2O1 (stereo not drawn) [compound 196] |  | inhibition at 10 µM [2]: 97%
Cc1ccccc1C1CCc2cc(OC3CCC(NC4CCOCC4)CC3)ccc2O1 (stereo not drawn) [compound 197] |  | inhibition at 10 µM [2]: 96%
Cc1ccccc1C1CCc2cc(OC3CCC(NCCCC4CCOC4)CC3)ccc2O1 (stereo not drawn) [compound 198] |  | inhibition at 10 µM [2]: 97%
Cc1ccccc1C1CCc2cc(OC3CCC(NCCCOC4CCCC4)CC3)ccc2O1 (stereo not drawn) [compound 199] |  | inhibition at 10 µM [2]: 71%
COCC(C)(C)CNC1CCC(Oc2ccc3c(c2)CCC(c2ccccc2C)O3)CC1 (stereo not drawn) [compound 200] |  | inhibition at 10 µM [2]: 94%
CCOCCCNC1CCC(Oc2ccc3c(c2)CCC(c2ccccc2C)O3)CC1 (stereo not drawn) [compound 201] |  | inhibition at 10 µM [2]: 98%
Cc1ccccc1C1CCc2cc(OC3CCC(NCCN4CCOCC4)CC3)ccc2O1 (stereo not drawn) [compound 202] | 1.9 µM | 
Cc1ccccc1C1CCc2cc(OC3CCC(NC4CC4)CC3)ccc2O1 (stereo not drawn) [compound 203] | 1.5 µM | 
Cc1ccccc1C1CCc2cc(OC3CCC(NC4CCCC4)CC3)ccc2O1 (stereo not drawn) [compound 204] | 1.9 µM | 
CCCNC1CCC(Oc2ccc3c(c2)CCC(c2ccccc2C)O3)CC1 (stereo not drawn) [compound 205] | 1.5 µM | 
Cc1ccccc1C1CCc2cc(OC3CCC(NC4CCS(=O)(=O)C4)CC3)ccc2O1 (stereo not drawn) [compound 206] | 1.1 µM | 
COC[C@H](C)NC1CCC(Oc2ccc3c(c2)CCC(c2ccccc2C)O3)CC1 (stereo partly drawn) [compound 207] | 1.5 µM | 
Cc1ccccc1C1CCc2cc(OC3CCC(NCC4CCOCC4)CC3)ccc2O1 (stereo not drawn) [compound 208] | 3 µM | 

SMILES | IC50 | further results
Cc1ccccc1C1CCc2cc(OC3CCC(NCCN4CCSCC4)CC3)ccc2O1 (stereo not drawn) [compound 209] | 3.2 µM | 
O=S1(=O)CCC(NC2CCC(Oc3ccc4c(c3)CCC(c3ccccc3F)O4)CC2)C1 (stereo not drawn) [compound 210] | 1.1 µM | 
COCC(C)(C)CNC1CCC(Oc2ccc3c(c2)CCC(c2ccccc2F)O3)CC1 (stereo not drawn) [compound 211] | 2.2 µM | 
Fc1ccccc1C1CCc2cc(OC3CCC(NC4CC4)CC3)ccc2O1 (stereo not drawn) [compound 212] | 1.7 µM | 
CCCNC1CCC(Oc2ccc3c(c2)CCC(c2ccccc2F)O3)CC1 (stereo not drawn) [compound 213] | 1.4 µM | 
COCCNC1CCC(Oc2ccc3c(c2)CCC(c2ccccc2F)O3)CC1 (stereo not drawn) [compound 214] | 1.6 µM | 
COCCCNC1CCC(Oc2ccc3c(c2)CCC(c2ccccc2F)O3)CC1 (stereo not drawn) [compound 215] | 2.8 µM | 
Fc1ccccc1C1CCc2cc(OC3CCC(NCC4CCCO4)CC3)ccc2O1 (stereo not drawn) [compound 216] | 1.7 µM | 
CCSCCNC1CCC(Oc2ccc3c(c2)CCC(c2ccccc2F)O3)CC1 (stereo not drawn) [compound 217] | 2.3 µM | 
Fc1ccccc1C1CCc2cc(OC3CCC(NC4CCCC4)CC3)ccc2O1 (stereo not drawn) [compound 218] | 2.8 µM | 
COCC(C)NC1CCC(Oc2ccc3c(c2)CCC(c2ccccc2F)O3)CC1 (stereo not drawn) [compound 219] | 2.4 µM | 
Fc1ccccc1C1CCc2cc(OC3CCC(NCCC4CCOCC4)CC3)ccc2O1 (stereo not drawn) [compound 220] | 2.4 µM | 
COC[C@H](C)NC1CCC(Oc2ccc3c(c2)CCC(c2ccccc2F)O3)CC1 (stereo partly drawn) [compound 221] | 2.3 µM | 
CCC(COC)NC1CCC(Oc2ccc3c(c2)CCC(c2ccccc2F)O3)CC1 (stereo not drawn) [compound 222] | 3.1 µM | 
CCOCCCNC1CCC(Oc2ccc3c(c2)CCC(c2ccccc2F)O3)CC1 (stereo not drawn) [compound 223] | 3.1 µM | 
Fc1ccccc1C1CCc2cc(OC3CCC(NCCN4CCOCC4)CC3)ccc2O1 (stereo not drawn) [compound 224] | 3.5 µM | 
CC(C)OCCCNC1CCC(Oc2ccc3c(c2)CCC(c2ccccc2F)O3)CC1 (stereo not drawn) [compound 225] | 3.9 µM | 
CSCCNC1CCC(Oc2ccc3c(c2)CCC(c2ccccc2F)O3)CC1 (stereo not drawn) [compound 226] | 2.4 µM | 
Fc1ccccc1C1CCc2cc(OC3CCC(NCCN4CCSCC4)CC3)ccc2O1 (stereo not drawn) [compound 227] | 4.3 µM | 
Fc1ccccc1C1CCc2cc(OC3CCC(NCCCC4CCOC4)CC3)ccc2O1 (stereo not drawn) [compound 228] | 2.2 µM | 
Fc1ccccc1C1CCc2cc(OC3CCC(NCCCOC4CCCC4)CC3)ccc2O1 (stereo not drawn) [compound 229] | 6 µM | 
CCCCNC1CCC(Oc2ccc3c(c2)CCC(c2ccccc2F)O3)CC1 (stereo not drawn) [compound 230] | 2.9 µM | 
Fc1ccccc1C1CCc2cc(OC3CCC(NC4CCOCC4)CC3)ccc2O1 (stereo not drawn) [compound 231] | 4.1 µM | 
CC(C)SCCNC1CCC(Oc2ccc3c(c2)CCC(c2ccccc2F)O3)CC1 (stereo not drawn) [compound 232] | 5.9 µM | 
O=C(N[C@H]1CC[C@H](Oc2ccc3c(c2)CCC(c2ccccc2F)O3)CC1)C1CCC1 (stereo partly drawn) [compound 244] | 0.1 µM | 
CO[C@H](C)C(=O)N[C@H]1CC[C@H](Oc2ccc3c(c2)CCC(c2ccccc2F)O3)CC1 (stereo partly drawn) [compound 255] | 0.2 µM | 
